In BindingDB's records for doi:10.1016/0024-3205(82)90293-4 (University of Arizona, 1982) one finds Ki data, which are given here for three compounds.

Each structure is given as a SMILES string. pKi: −log10 of the molar value. Several values for one entry are separate records, joined by “and”; a condition that tells them apart may be missing. Equal entries are not always repeated.

The target of this test is Voltage-dependent L-type calcium channel subunit alpha-1C (Rattus norvegicus, UniProt P22002).
Sequence of Voltage-dependent L-type calcium channel subunit alpha-1C (P22002 whole entry): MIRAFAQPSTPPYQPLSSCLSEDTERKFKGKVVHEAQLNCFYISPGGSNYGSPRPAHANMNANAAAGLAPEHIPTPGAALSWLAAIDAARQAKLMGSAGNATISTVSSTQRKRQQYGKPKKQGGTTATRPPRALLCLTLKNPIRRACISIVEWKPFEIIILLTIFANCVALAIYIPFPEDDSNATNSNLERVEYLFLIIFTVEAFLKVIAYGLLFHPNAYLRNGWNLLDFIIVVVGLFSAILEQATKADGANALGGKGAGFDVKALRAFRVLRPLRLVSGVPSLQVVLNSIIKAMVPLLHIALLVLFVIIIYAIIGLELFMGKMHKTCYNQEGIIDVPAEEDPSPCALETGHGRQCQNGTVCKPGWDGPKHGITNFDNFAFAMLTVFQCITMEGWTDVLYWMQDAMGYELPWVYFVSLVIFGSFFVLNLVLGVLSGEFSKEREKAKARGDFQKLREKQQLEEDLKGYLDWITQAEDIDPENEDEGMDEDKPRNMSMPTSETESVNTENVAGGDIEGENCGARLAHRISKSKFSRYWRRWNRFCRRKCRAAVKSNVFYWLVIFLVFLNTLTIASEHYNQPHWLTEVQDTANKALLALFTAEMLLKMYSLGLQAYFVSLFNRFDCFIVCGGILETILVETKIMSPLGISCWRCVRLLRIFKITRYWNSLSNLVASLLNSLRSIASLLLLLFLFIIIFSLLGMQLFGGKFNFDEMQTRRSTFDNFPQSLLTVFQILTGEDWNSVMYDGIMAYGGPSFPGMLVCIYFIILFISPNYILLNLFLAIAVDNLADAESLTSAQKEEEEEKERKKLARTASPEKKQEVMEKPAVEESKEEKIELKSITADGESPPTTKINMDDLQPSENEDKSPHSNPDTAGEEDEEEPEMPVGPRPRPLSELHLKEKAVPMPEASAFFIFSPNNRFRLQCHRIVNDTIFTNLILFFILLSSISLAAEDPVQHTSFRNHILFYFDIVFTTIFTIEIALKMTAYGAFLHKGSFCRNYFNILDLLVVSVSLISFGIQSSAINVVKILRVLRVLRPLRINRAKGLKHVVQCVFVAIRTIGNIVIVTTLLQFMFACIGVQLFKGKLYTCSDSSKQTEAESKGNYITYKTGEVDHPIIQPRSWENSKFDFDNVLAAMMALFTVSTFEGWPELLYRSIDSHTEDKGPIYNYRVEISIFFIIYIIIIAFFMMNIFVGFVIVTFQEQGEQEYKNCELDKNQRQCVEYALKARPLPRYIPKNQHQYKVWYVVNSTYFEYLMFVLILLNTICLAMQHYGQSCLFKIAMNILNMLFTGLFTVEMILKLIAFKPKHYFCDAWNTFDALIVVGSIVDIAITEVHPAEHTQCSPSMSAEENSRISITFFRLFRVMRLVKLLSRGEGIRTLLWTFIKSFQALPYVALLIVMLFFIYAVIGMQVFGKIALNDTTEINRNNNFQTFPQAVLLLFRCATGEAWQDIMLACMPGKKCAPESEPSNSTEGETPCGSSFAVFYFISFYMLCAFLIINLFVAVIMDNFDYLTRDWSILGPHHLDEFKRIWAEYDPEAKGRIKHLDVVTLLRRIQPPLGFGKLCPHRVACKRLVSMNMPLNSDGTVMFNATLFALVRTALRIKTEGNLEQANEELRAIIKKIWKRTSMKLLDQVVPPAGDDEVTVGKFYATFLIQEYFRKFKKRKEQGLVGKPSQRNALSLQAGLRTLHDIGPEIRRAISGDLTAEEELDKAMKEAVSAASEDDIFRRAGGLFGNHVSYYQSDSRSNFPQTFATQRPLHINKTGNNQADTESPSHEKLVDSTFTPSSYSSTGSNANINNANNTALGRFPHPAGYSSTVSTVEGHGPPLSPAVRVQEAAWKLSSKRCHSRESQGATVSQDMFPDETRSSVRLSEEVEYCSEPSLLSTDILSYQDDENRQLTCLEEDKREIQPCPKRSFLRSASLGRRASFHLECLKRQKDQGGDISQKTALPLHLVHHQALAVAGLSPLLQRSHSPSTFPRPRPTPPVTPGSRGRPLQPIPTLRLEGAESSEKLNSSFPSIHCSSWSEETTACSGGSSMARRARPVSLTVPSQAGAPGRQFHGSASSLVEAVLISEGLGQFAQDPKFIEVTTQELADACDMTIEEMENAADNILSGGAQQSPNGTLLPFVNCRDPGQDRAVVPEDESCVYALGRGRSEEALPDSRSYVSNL
For orientation: pKi means the Ki on a negative log10 scale, so that one unit is a factor of ten. As for `COCCOC(=O)C1=C(C)N=C(C)C(C(=O)OC(C)C)C1c1cccc([N+](=O)[O-])c1` (stereo not drawn) [Nimotop], the pKi was 9.25 and 9.10.

In the case of `COc1ccc(CCN(C)CCCC(C#N)(c2cc(OC)c(OC)c(OC)c2)C(C)C)cc1OC` (stereo not drawn) [GALLOPAMIL], the pKi was 7.38.

Regarding `COC(=O)C1C(C)=NC(C)=C(C(=O)OCC(C)C)C1c1ccccc1[N+](=O)[O-]` (stereo not drawn) [CAS_4499], the pKi is 9.48 and 9.30.
